From patent US12324827B2, “Combination therapy for the treatment of migraines” (The University of Chicago, priority 2019, dated 2025)
“And” between values parts separate entries of the source, which are not always exact repeats. Equal entries are not always repeated.

Columns and labels:
trigeminal ganglion CGRP = test: CGRP immunostaining of trigeminal ganglion (V1) in naïve animals 24 hours after N2B IGF-1; format: in vivo, rat
Protocol: 24 hours later animals were re-anesthetized, brains harvested and processed for CGRP immunostaining of the TG. Images were obtained from each animal and image fluorescence intensity quantified via a digital imaging strategy. Three images were measured per animal and the averages recorded. Nasal delivery and image processing was completed while blinded to conditions. Experiments, immunostaining and imaging were done in pairs (i.e., sham and IGF-1) to reduce potential variability. […] This reduction was significant (p<0.001; alpha=0.05; power of 1.00). Scale bar=50 μm. […]
The inventors used computer-based and blinded semi-quantitative digital quantification of immunostaining metrics to test the ability of N2B IGF-1 to impact TS activation. […]
Imaging was performed using a Photometrics self-calibrating digital camera QuantEM-512SC camera (500×500 pixels; Photometrics, Tucson, AZ) run on MetaMorph software (v. 7.0.4; Molecular Devices, Sunnyvale, CA) under blinded conditions (as previously described (13, 20-22). Image exposure, camera gain and thresholding were uniformly set (i.e., equivalently for experimental and sham groups for each imaging metric (i.e., MDA, CGRP and c-fos). Resultant images were digitally stored as TIFF files for subsequent analyses that continued under blinded conditions where image integrated fluorescence intensity was registered using MetaMorph software for MDA and CGRP. […]

[1] = test system: trigeminal ganglion malondialdehyde; test: Malondialdehyde (oxidative stress) immunostaining of trigeminal ganglion after recurrent spreading depression; format: in vivo, rat
Protocol: N2B delivery of 150 μg human recombinant IGF-1 (#191-G1; R&D Systems, Minneapolis, MN) in 50 μL sodium succinate buffer followed the previously described approach (21,51) that was based on the techniques of Liu and coworkers (24) in the recording laboratory under isoflurane anesthesia with spontaneous ventilation.
Induction of recurrent SD followed previously published aseptic techniques from the inventors' laboratory (8, 13, 21, 25, 26, 51) (FIG. 4). […]
Imaging was performed using a Photometrics self-calibrating digital camera QuantEM-512SC camera (500×500 pixels; Photometrics, Tucson, AZ) run on MetaMorph software (v. 7.0.4; Molecular Devices, Sunnyvale, CA) under blinded conditions (as previously described (13, 20-22). Image exposure, camera gain and thresholding were uniformly set (i.e., equivalently for experimental and sham groups for each imaging metric (i.e., MDA, CGRP and c-fos). Resultant images were digitally stored as TIFF files for subsequent analyses that continued under blinded conditions where image integrated fluorescence intensity was registered using MetaMorph software for MDA and CGRP.
Images of MDA and CGRP were analyzed while blinded and later decoded to ratios of experimental/sham image integrated optical intensity, a sensitive metric that not only accounts for the area but also the pixel intensity of related image fluorescence. […]

[2] = test system: cortical spreading depression; test: Number of cortical spreading depressions evoked over 90 minutes; format: in vivo, rat; conditions: CSD stimulus every nine minutes for 90 minutes, an hour after intravenous injection, n=3
Excerpt: Animals are stabilized for an hour under anesthesia (1.5% isoflurane in oxygen) after head sutures are removed, eyes coated with Artificial Tears and animals made ready for initiation and recording of CSD under deeper (5%) isoflurane in oxygen, which is then lowered back to 1.5% isoflurane in oxygen during CSD recordings. CSD is initiated as described above one to four hours after antibody infusion. All animals receive nine KCl injections. Then, isoflurane is raised to 5% and animals anesthetized with intraperitoneal ketamine and Xylazine followed quickly by euthanasia via intra-cardiac perfusion with 0.1 mL heparin (1,000 units/ml), then 250 ml of normal saline and finally 250 ml 4% paraformaldehyde in 0.2 M phosphate buffer. Brains plus upper cervical cord and trigeminal ganglia are harvested for measurement of c-fos immunostaining in the trigeminocervical complex and CGRP and oxidative stress (malondialdehyde) levels in the trigeminal ganglion ipsilateral to CSD. Animal groups and endpoints are defined below.
First, the inventors confirmed that there was no significant difference in the number of evoked CSDs between groups (FIG. 16). Sham nasal delivery was, as reported (i.e., 50 μl succinate buffer delivered as 5 μl aliquots to alternating nostrils every two minutes) while under isoflurane inhalational anesthesia (Won and Kraig, 2020). […]

[3] = test system: rat hippocampal brain slice cultures; conditions: cited from earlier work

IGF-1: human recombinant IGF-1 (#191-G1; R&D Systems), 150 μg in 50 μL sodium succinate buffer, delivered nose-to-brain
reduction of CGRP levels in the trigeminal ganglion of naïve animals (trigeminal ganglion CGRP; N2B IGF-1 150 μg versus sham, 24 hours, p<0.001): ~75%
natural logarithm ratio (IGF-1/sham) of CGRP immunostaining, naïve animals (trigeminal ganglion CGRP; n=7/group): −1.66±0.32
reduction of malondialdehyde levels in the trigeminal ganglion after recurrent SD ([1]; N2B IGF-1 150 μg a day before 90 minutes of recurrent SD, p<0.001): 82% and 83%
natural logarithm ratio (IGF-1/sham) of MDA immunostaining after recurrent SD ([1]; n=5/group): −1.37±0.40
number of CSDs evoked [2]: 7±0.41
oxidative stress from menadione exposure ([3]; brain slice cultures in vitro): significantly reduced
spreading depression in slice cultures ([3]; rat hippocampal brain slice cultures): significantly inhibited spreading depression
